Experimental data taken from article PMC5218480 (PLoS ONE, 2017).

Tested on: MV-4-11 cells
Experiment: Gene expression microarray analysis (Affymetrix PrimeView) and GSEA
Assay type: cell-based, human
Parameters: RFU PODN (11730768_x_at) / Fold change /veh PODN (11730768_x_at) / RFU LINC00158 (11744669_a_at) / Fold change /veh LINC00158 (11744669_a_at) / RFU DUSP10 (11751237_a_at) / Fold change /veh DUSP10 (11751237_a_at) / RFU ID3 (11757404_x_at) / Fold change /veh ID3 (11757404_x_at) / RFU PLEKHG5 (11737974_s_at) / Fold change /veh PLEKHG5 (11737974_s_at) / RFU LRRC4B (11730491_at) / Fold change /veh LRRC4B (11730491_at) / RFU GIMAP4 (11747438_a_at) / Fold change /veh GIMAP4 (11747438_a_at) / RFU KRT8 (11758183_x_at) / Fold change /veh KRT8 (11758183_x_at) / RFU CNN1 (11734310_a_at) / Fold change /veh CNN1 (11734310_a_at) / RFU VPS37D (11726825_at) / Fold change /veh VPS37D (11726825_at) / RFU C10orf10 (11716522_x_at) / Fold change /veh C10orf10 (11716522_x_at) / RFU KIR2DL2 /// KIR2DL4 /// KIR2DL5A /// KIR2DL5B /// KIR2DS1 /// KIR2DS2 /// KIR2DS3 /// KIR2DS4 /// KIR3DL3 /// KIR3DL3 /// KIR3DS1 (11738374_at) / Fold change /veh KIR2DL2 /// KIR2DL4 /// KIR2DL5A /// KIR2DL5B /// KIR2DS1 /// KIR2DS2 /// KIR2DS3 /// KIR2DS4 /// KIR3DL3 /// KIR3DL3 /// KIR3DS1 (11738374_at) / RFU C1QL1 (11718748_at) / Fold change /veh C1QL1 (11718748_at) / RFU TMPRSS4 (11747572_a_at) / Fold change /veh TMPRSS4 (11747572_a_at) / RFU HAMP (11756126_x_at) / Fold change /veh HAMP (11756126_x_at) / RFU RNFT2 (11725882_a_at) / Fold change /veh RNFT2 (11725882_a_at) / RFU NR4A2 (11747474_a_at) / Fold change /veh NR4A2 (11747474_a_at) / RFU ABCC12 (11746883_a_at) / Fold change /veh ABCC12 (11746883_a_at) / RFU TMEM136 (11760407_x_at) / Fold change /veh TMEM136 (11760407_x_at) / RFU CLDN22 /// WWC2 (11732394_at) / Fold change /veh CLDN22 /// WWC2 (11732394_at) / RFU HLA-DPB1 (11760878_x_at) / Fold change /veh HLA-DPB1 (11760878_x_at) / RFU SPINT1 (11716480_a_at) / Fold change /veh SPINT1 (11716480_a_at) / RFU GAP43 (11754022_s_at) / Fold change /veh GAP43 (11754022_s_at) / RFU A4GNT (11735810_at) / Fold change /veh A4GNT (11735810_at) / RFU PRB3 (11715151_x_at) / Fold change /veh PRB3 (11715151_x_at) / RFU TUBB4B (11761932_at) / Fold change /veh TUBB4B (11761932_at) / RFU CAPN14 (11732068_a_at) / Fold change /veh CAPN14 (11732068_a_at) / RFU TMCC2 (11721928_a_at) / Fold change /veh TMCC2 (11721928_a_at) / RFU IRGQ (11745062_a_at) / Fold change /veh IRGQ (11745062_a_at) / RFU FAM174B (11720279_a_at) / Fold change /veh FAM174B (11720279_a_at) / RFU TMPRSS4 (11748680_a_at) / Fold change /veh TMPRSS4 (11748680_a_at) / RFU FAM212B (11763350_a_at) / Fold change /veh FAM212B (11763350_a_at) / RFU PLEKHG5 (11743358_a_at) / Fold change /veh PLEKHG5 (11743358_a_at) / RFU ZSCAN30 (11745921_a_at) / Fold change /veh ZSCAN30 (11745921_a_at) / RFU CMKLR1 (11741424_a_at) / Fold change /veh CMKLR1 (11741424_a_at) / RFU LOC101060620 /// MAPK8IP1 (11723275_at) / Fold change /veh LOC101060620 /// MAPK8IP1 (11723275_at) / RFU SPTSSB (11747773_x_at) / Fold change /veh SPTSSB (11747773_x_at) / RFU PRSS12 (11739890_at) / Fold change /veh PRSS12 (11739890_at) / RFU BIN1 (11741810_x_at) / Fold change /veh BIN1 (11741810_x_at) / RFU WNT11 (11732464_a_at) / Fold change /veh WNT11 (11732464_a_at) / RFU C10orf10 (11716521_a_at) / Fold change /veh C10orf10 (11716521_a_at) / RFU C5orf56 (11738089_at) / Fold change /veh C5orf56 (11738089_at) / RFU CYB561 (11721691_x_at) / Fold change /veh CYB561 (11721691_x_at) / RFU ANKRD19P (11752326_a_at) / Fold change /veh ANKRD19P (11752326_a_at) / RFU OR2T12 /// OR2T33 /// OR2T8 (11738714_s_at) / Fold change /veh OR2T12 /// OR2T33 /// OR2T8 (11738714_s_at) / RFU VCAN (11748164_a_at) / Fold change /veh VCAN (11748164_a_at) / RFU JSRP1 (11732532_at) / Fold change /veh JSRP1 (11732532_at) / RFU KRTAP10-11 (11738290_x_at) / Fold change /veh KRTAP10-11 (11738290_x_at) / RFU MYO3A (11730013_a_at) / Fold change /veh MYO3A (11730013_a_at) / RFU EBF3 (11725865_a_at) / Fold change /veh EBF3 (11725865_a_at) / RFU CAMK2N1 (11719241_x_at) / Fold change /veh CAMK2N1 (11719241_x_at) / RFU C5orf56 (11738088_a_at) / Fold change /veh C5orf56 (11738088_a_at) / RFU OLFML3 (11715873_a_at) / Fold change /veh OLFML3 (11715873_a_at) / RFU LOC100653217 /// NTM (11731650_a_at) / Fold change /veh LOC100653217 /// NTM (11731650_a_at) / RFU MAPK11 (11762145_a_at) / Fold change /veh MAPK11 (11762145_a_at) / RFU FIZ1 (11724087_x_at) / Fold change /veh FIZ1 (11724087_x_at) / RFU OASL (11726364_x_at) / Fold change /veh OASL (11726364_x_at) / RFU SOX15 (11748057_x_at) / Fold change /veh SOX15 (11748057_x_at) / RFU CD79A (11719716_a_at) / Fold change /veh CD79A (11719716_a_at) / RFU HIST1H1D (11736915_at) / Fold change /veh HIST1H1D (11736915_at) / RFU CASKIN2 (11723855_a_at) / Fold change /veh CASKIN2 (11723855_a_at) / RFU LOC730098 (11760151_x_at) / Fold change /veh LOC730098 (11760151_x_at) / RFU OR4N2 (11742367_at) / Fold change /veh OR4N2 (11742367_at) / RFU PRRT2 (11749266_a_at) / Fold change /veh PRRT2 (11749266_a_at) / RFU SNX32 (11753110_a_at) / Fold change /veh SNX32 (11753110_a_at) / RFU CDHR5 (11726645_a_at) / Fold change /veh CDHR5 (11726645_a_at) / RFU RCAN1 (11760418_a_at) / Fold change /veh RCAN1 (11760418_a_at) / RFU FAM167A (11723789_a_at) / Fold change /veh FAM167A (11723789_a_at) / RFU FAM26E (11764081_at) / Fold change /veh FAM26E (11764081_at) / RFU ISYNA1 (11749810_s_at) / Fold change /veh ISYNA1 (11749810_s_at) / RFU ACY1 (11761880_at) / Fold change /veh ACY1 (11761880_at) / RFU 11764098_at / Fold change /veh 11764098_at / RFU SAMD14 (11745864_x_at) / Fold change /veh SAMD14 (11745864_x_at) / RFU NPB (11741838_a_at) / Fold change /veh NPB (11741838_a_at) / RFU TMPRSS6 (11731388_a_at) / Fold change /veh TMPRSS6 (11731388_a_at) / RFU KRTAP10-2 (11738614_at) / Fold change /veh KRTAP10-2 (11738614_at) / RFU ARHGAP8 /// PRR5-ARHGAP8 (11727945_x_at) / Fold change /veh ARHGAP8 /// PRR5-ARHGAP8 (11727945_x_at) / RFU KRTAP5-7 /// NADSYN1 (11734609_at) / Fold change /veh KRTAP5-7 /// NADSYN1 (11734609_at) / RFU RASL12 (11751679_a_at) / Fold change /veh RASL12 (11751679_a_at) / RFU CDKN2B (11736163_a_at) / Fold change /veh CDKN2B (11736163_a_at) / RFU PRF1 (11729649_at) / Fold change /veh PRF1 (11729649_at) / RFU, ZNF638 /// ZNF638-IT1 / Fold change vs veh, ZNF638 /// ZNF638-IT1 / RFU, PANK3 / Fold change vs veh, PANK3 / RFU, SH3YL1 / Fold change vs veh, SH3YL1 / RFU, ZEB2 / Fold change vs veh, ZEB2 / RFU, NRIP1 / Fold change vs veh, NRIP1 / RFU, PTTG1IP / Fold change vs veh, PTTG1IP / RFU, CAPN2 / Fold change vs veh, CAPN2 / RFU, MED14 / Fold change vs veh, MED14 / RFU, SNORA58 / Fold change vs veh, SNORA58 / RFU, C1orf63 / Fold change vs veh, C1orf63 / RFU, LRRFIP1 / Fold change vs veh, LRRFIP1 / RFU, NDUFAF7 / Fold change vs veh, NDUFAF7 / RFU, SLC12A2 / Fold change vs veh, SLC12A2 / RFU, IBTK / Fold change vs veh, IBTK / RFU, ESF1 / Fold change vs veh, ESF1 / Fold change vs veh, TMEM50B / RFU, TAOK1 / Fold change vs veh, TAOK1 / RFU, ACBD3 / Fold change vs veh, ACBD3 / RFU, TMA16 / Fold change vs veh, TMA16 / RFU, RWDD3 / Fold change vs veh, RWDD3 / RFU, BCAT1 / Fold change vs veh, BCAT1 / RFU, EDEM3 / Fold change vs veh, EDEM3 / RFU, TMEM33 / Fold change vs veh, TMEM33 / RFU, WDR75 / Fold change vs veh, WDR75 / RFU, AHCTF1 / Fold change vs veh, AHCTF1 / RFU, TFRC / Fold change vs veh, TFRC / RFU, ZDHHC17 / Fold change vs veh, ZDHHC17 / RFU, NOM1 / Fold change vs veh, NOM1 / RFU, ARL8B / Fold change vs veh, ARL8B / RFU, ZBTB11 / Fold change vs veh, ZBTB11 / RFU, TAMM41 / Fold change vs veh, TAMM41 / RFU, KIAA1704 /// LOC100996395 / Fold change vs veh, KIAA1704 /// LOC100996395 / RFU, ING1 / Fold change vs veh, ING1 / RFU, TRMT61B / Fold change vs veh, TRMT61B / RFU, FUBP3 / Fold change vs veh, FUBP3 / RFU, TP53 / Fold change vs veh, TP53 / RFU, TNKS2 / Fold change vs veh, TNKS2 / RFU, ZFP14 / Fold change vs veh, ZFP14 / RFU, ACTR2 / Fold change vs veh, ACTR2 / RFU, PPP3R1 / Fold change vs veh, PPP3R1 / RFU, PIK3R1 / Fold change vs veh, PIK3R1 / RFU, HNRNPA1 / Fold change vs veh, HNRNPA1 / RFU, RNF170 / Fold change vs veh, RNF170 / RFU, ZNF28 / Fold change vs veh, ZNF28 / RFU, RNGTT / Fold change vs veh, RNGTT / RFU, OGT / Fold change vs veh, OGT / RFU, BRD1 / Fold change vs veh, BRD1 / RFU, MARS / Fold change vs veh, MARS / RFU, ZNF655 / Fold change vs veh, ZNF655 / RFU, FAHD1 / Fold change vs veh, FAHD1 / RFU, BDP1 / Fold change vs veh, BDP1 / RFU, LRRCC1 / Fold change vs veh, LRRCC1 / RFU, ARID1A / Fold change vs veh, ARID1A / RFU, ZNF146 / Fold change vs veh, ZNF146 / RFU, ZNF330 / Fold change vs veh, ZNF330 / RFU, GPN3 / Fold change vs veh, GPN3 / RFU, C9orf123 / Fold change vs veh, C9orf123 / RFU, N4BP2L2 / Fold change vs veh, N4BP2L2 / RFU, ARFIP1 / Fold change vs veh, ARFIP1 / RFU, FAM179B / Fold change vs veh, FAM179B / RFU, BCL10 / Fold change vs veh, BCL10 / RFU, UHRF1BP1L / Fold change vs veh, UHRF1BP1L / RFU, BET1 / Fold change vs veh, BET1 / RFU, CNOT2 / Fold change vs veh, CNOT2 / RFU, ZNF268 / Fold change vs veh, ZNF268 / Fold change vs veh, ZNF507 / RFU, DGCR2 / Fold change vs veh, DGCR2 / RFU, WDSUB1 / Fold change vs veh, WDSUB1 / Fold change vs veh, HSP90B1 /// MIR3652 / RFU, ADSS / Fold change vs veh, ADSS / RFU, GK / Fold change vs veh, GK / RFU, ZNF148 / Fold change vs veh, ZNF148 / RFU, TAF9 / Fold change vs veh, TAF9 / RFU, SLC1A5 / Fold change vs veh, SLC1A5 / RFU, SLMO2 / Fold change vs veh, SLMO2 / RFU, ABCC4 / Fold change vs veh, ABCC4 / RFU, LOC101060439 /// RAP1B / Fold change vs veh, LOC101060439 /// RAP1B / RFU, RFX7 / Fold change vs veh, RFX7 / RFU, GTPBP10 / Fold change vs veh, GTPBP10 / RFU, CNEP1R1 / Fold change vs veh, CNEP1R1 / RFU, BIVM-ERCC5 /// ERCC5 / Fold change vs veh, BIVM-ERCC5 /// ERCC5 / RFU, ILF3 / Fold change vs veh, ILF3 / RFU 11762660_at / Fold change /veh 11762660_at / RFU VCAN (11757783_s_at) / Fold change /veh VCAN (11757783_s_at) / RFU DDX43 (11728927_at) / Fold change /veh DDX43 (11728927_at) / RFU KRT8 (11758188_x_at) / Fold change /veh KRT8 (11758188_x_at) / RFU NKD1 (11759106_at) / Fold change /veh NKD1 (11759106_at) / RFU SRD5A1 (11742802_a_at) / Fold change /veh SRD5A1 (11742802_a_at) / RFU TPSAB1 /// TPSB2 (11721975_s_at) / Fold change /veh TPSAB1 /// TPSB2 (11721975_s_at) / RFU GSTM3 (11746129_a_at) / Fold change /veh GSTM3 (11746129_a_at) / RFU IL23R (11737362_x_at) / Fold change /veh IL23R (11737362_x_at) / RFU TMEM51 (11727254_a_at) / Fold change /veh TMEM51 (11727254_a_at) / RFU PIWIL2 (11732686_x_at) / Fold change /veh PIWIL2 (11732686_x_at) / RFU ORM1 (11744905_x_at) / Fold change /veh ORM1 (11744905_x_at) / RFU CCDC152 (11743942_at) / Fold change /veh CCDC152 (11743942_at) / RFU ECM1 (11717891_a_at) / Fold change /veh ECM1 (11717891_a_at) / RFU IL23R (11748794_a_at) / Fold change /veh IL23R (11748794_a_at) / RFU TNFAIP8L3 (11732012_x_at) / Fold change /veh TNFAIP8L3 (11732012_x_at) / RFU MBOAT4 (11741988_at) / Fold change /veh MBOAT4 (11741988_at) / RFU 11764193_at / Fold change /veh 11764193_at / RFU TMEM53 (11763286_at) / Fold change /veh TMEM53 (11763286_at) / RFU MAGEB2 (11727129_at) / Fold change /veh MAGEB2 (11727129_at) / RFU TMEM200A (11744735_a_at) / Fold change /veh TMEM200A (11744735_a_at) / RFU CCDC152 (11751479_a_at) / Fold change /veh CCDC152 (11751479_a_at) / RFU FAM211A (11726209_a_at) / Fold change /veh FAM211A (11726209_a_at) / RFU RGS16 (11746705_a_at) / Fold change /veh RGS16 (11746705_a_at) / RFU VCAN (11755009_s_at) / Fold change /veh VCAN (11755009_s_at) / RFU RHOB (11743442_s_at) / Fold change /veh RHOB (11743442_s_at) / RFU RGS16 (11720943_a_at) / Fold change /veh RGS16 (11720943_a_at) / RFU RGS16 (11720944_at) / Fold change /veh RGS16 (11720944_at) / RFU, VPS4B / Fold change vs veh, VPS4B / RFU, CREB1 / Fold change vs veh, CREB1 / RFU, DNAJC13 / Fold change vs veh, DNAJC13 / RFU, GNAQ / Fold change vs veh, GNAQ / RFU, CDK5R1 / Fold change vs veh, CDK5R1 / RFU, ZRANB3 / Fold change vs veh, ZRANB3 / RFU, CUL4A / Fold change vs veh, CUL4A / RFU, CCNY / Fold change vs veh, CCNY / RFU, UFL1 / Fold change vs veh, UFL1 / RFU, COG3 / Fold change vs veh, COG3 / RFU, DIAPH2 / Fold change vs veh, DIAPH2 / RFU, SKA2 / Fold change vs veh, SKA2 / RFU, AFF3 / Fold change vs veh, AFF3 / RFU, LMF1 / Fold change vs veh, LMF1 / RFU, IPO11 / Fold change vs veh, IPO11 / RFU, DFFB / Fold change vs veh, DFFB / RFU, FOXP1 / Fold change vs veh, FOXP1 / RFU, CARD8 / Fold change vs veh, CARD8 / RFU, STRN3 / Fold change vs veh, STRN3 / RFU, ADK / Fold change vs veh, ADK / RFU, RASSF2 / Fold change vs veh, RASSF2 / RFU, WIPF1 / Fold change vs veh, WIPF1 / RFU, LARP1B / Fold change vs veh, LARP1B / RFU, RASA1 / Fold change vs veh, RASA1 / RFU, RB1 / Fold change vs veh, RB1 / RFU, PPFIA1 / Fold change vs veh, PPFIA1 / RFU, MAT2A / Fold change vs veh, MAT2A / RFU, CCT5 / Fold change vs veh, CCT5 / RFU, WDR92 / Fold change vs veh, WDR92 / RFU, CUX1 / Fold change vs veh, CUX1 / RFU, TTC7A / Fold change vs veh, TTC7A / RFU, TMEM135 / Fold change vs veh, TMEM135 / RFU, DEPTOR / Fold change vs veh, DEPTOR / RFU, CPM / Fold change vs veh, CPM / RFU, DNAJB6 / Fold change vs veh, DNAJB6 / RFU, CACNA2D3 / Fold change vs veh, CACNA2D3 / RFU, DTX4 / Fold change vs veh, DTX4 / RFU, TFCP2 / Fold change vs veh, TFCP2 / RFU, GMCL1 /// GMCL1P1 / Fold change vs veh, GMCL1 /// GMCL1P1 / RFU, AEBP2 / Fold change vs veh, AEBP2 / RFU, SNHG1 /// SNORD22 /// SNORD25 /// SNORD26 /// SNORD27 /// SNORD28 /// SNORD29 /// SNORD31 / Fold change vs veh, SNHG1 /// SNORD22 /// SNORD25 /// SNORD26 /// SNORD27 /// SNORD28 /// SNORD29 /// SNORD31 / Fold change (Aza/veh), C12orf56 (ProbeSet 11735607_a_at) / Fold change (ACY-1035/veh), C12orf56 (ProbeSet 11735607_a_at) / Fold change (Aza/veh), FGFR1OP (ProbeSet 11751329_s_at) / Fold change (ACY-1035/veh), FGFR1OP (ProbeSet 11751329_s_at) / Fold change (Aza/veh), VPS36 (ProbeSet 11739960_a_at) / Fold change (ACY-1035/veh), VPS36 (ProbeSet 11739960_a_at) / RFU SYPL1 (11715823_x_at) / Fold change /veh SYPL1 (11715823_x_at) / RFU IGFBP7 (11715501_s_at) / Fold change /veh IGFBP7 (11715501_s_at) / RFU REEP3 (11722064_at) / Fold change /veh REEP3 (11722064_at) / RFU IGLL1 (11728026_x_at) / Fold change /veh IGLL1 (11728026_x_at): dose or concentration left out as unconfirmed
Settings: ProbeSet 11717702_a_at; LIST D

## Nc1ncn([C@@H]2O[C@H](CO)[C@@H](O)[C@H]2O)c(=O)n1 [azacitidine]
  Fold change vs veh, RB1: 0.73
